Assay results as given in publication PMC5431086, “The Rational Design of Therapeutic Peptides for Aminopeptidase N using a Substrate-Based Approach” (Scientific Reports, 2017).
Positions of bridges follow the written chain, without caps; N, C: chain ends. Non-standard residues stand in square brackets, D forms with d. Residues, ends and D or L forms follow the SMILES beside them. Primed or numbered codes have the meaning given here. No end group written: not given here. FITC′ = fluorescein isothiocyanate label; Nle = CCCC[C@H](N)C(=O)O

Key:
[1] = biological target: T1, hAPN (aminopeptidase N) (Homo sapiens, UniProt P15144); assay: Inhibition of cleavage of fluorogenic alanine substrate (H-Ala-AMC) by APN; assay type: biochemical
T1 construct: human APN ecdomain (residues 66–967) were expressed and purified as previously described; honeybee-melittin signal peptide (N); His6 (C); made in house; host or cells: insect cells
T1 sequence (P15144 66-967): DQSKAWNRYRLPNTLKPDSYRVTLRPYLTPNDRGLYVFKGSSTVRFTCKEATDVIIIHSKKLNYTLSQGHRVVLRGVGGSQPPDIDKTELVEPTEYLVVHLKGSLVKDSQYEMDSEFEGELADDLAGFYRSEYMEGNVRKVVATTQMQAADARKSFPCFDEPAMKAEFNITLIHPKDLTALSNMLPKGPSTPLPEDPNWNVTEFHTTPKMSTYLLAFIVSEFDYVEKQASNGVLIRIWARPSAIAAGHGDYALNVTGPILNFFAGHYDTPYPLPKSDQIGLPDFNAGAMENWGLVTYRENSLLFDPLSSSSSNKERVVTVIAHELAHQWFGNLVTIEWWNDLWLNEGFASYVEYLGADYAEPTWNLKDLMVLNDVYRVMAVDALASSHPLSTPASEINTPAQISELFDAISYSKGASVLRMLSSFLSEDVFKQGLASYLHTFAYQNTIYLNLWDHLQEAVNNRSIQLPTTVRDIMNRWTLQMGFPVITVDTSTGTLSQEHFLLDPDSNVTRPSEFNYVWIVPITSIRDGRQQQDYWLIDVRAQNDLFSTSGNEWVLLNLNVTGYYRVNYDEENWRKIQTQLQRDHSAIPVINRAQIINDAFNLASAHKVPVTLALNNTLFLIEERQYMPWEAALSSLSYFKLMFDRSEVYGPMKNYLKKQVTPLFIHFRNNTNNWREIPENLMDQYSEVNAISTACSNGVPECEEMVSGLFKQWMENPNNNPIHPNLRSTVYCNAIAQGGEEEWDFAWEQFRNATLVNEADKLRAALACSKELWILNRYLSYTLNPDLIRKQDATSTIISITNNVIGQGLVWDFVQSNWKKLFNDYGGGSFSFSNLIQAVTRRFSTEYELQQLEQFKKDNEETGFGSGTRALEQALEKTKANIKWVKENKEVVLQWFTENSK
Description: Five-residue long peptides containing P1–P4′ residues from primary cleavages in the library were synthesized and tested for their ability to prevent the cleavage of a fluorogenic alanine substrate by hAPN.
The peptides used in this study were custom synthesized by AAPPTEC of Louisville, KY using traditional Fmoc solid-phase peptide synthesis. All of the peptides were purified and characterized by AAPPTEC. […] Inhibition assays were performed in triplicate in a 100 mM Tris pH 7.2, Brij 35 0.0002% w/v assay buffer at 37 °C with 0.1 μM APN and 100 μM H-Ala-AMC (fluorophore). Values were recorded by Infinite pro plate reader every 2 minutes for 30 minutes with laser parameters set for excitation at 355 nm and emission at 460 nm.

[2] = test system: PC3 cells; assay: Clonogenic survival assay, PC3; assay type: cell-based
Description: (§1) The potential therapeutic efficacy of cyc-LHSPW was next tested in vitro using the PC3 and DU145 cell lines. […] Prior to in vivo therapeutic efficacy studies, a toxicity study was performed with the i.v. administration of cyc-LHSPW. […] Mice bearing established PC3 and DU145 xenografts were treated systemically via tail vein injection with 40 mg/kg of the tumor homing APN peptide cyc-NGR or the cyc-LHSPW peptide t.i.w. x4 (Fig. 6B). […] This therapeutic effect persisted to the end of the study with the cyc-LHSPW-treated mice having a tumor volume of 309.3 ± 92.7 mm^3 at day 35. […] PC3 tumors were removed and stained for the cellular proliferation marker Ki67.
(§2) Figure 6 The therapeutic evaluation of cyc-LHSPW in vivo and in vitro. (A) The effect of the three peptides cyc-LHSPW, LHSPW and cyc-nHSPW on the clonogenic survival of APN-expressing PC3 cells and APN-null DU145 cells. (B) Tumor growth of PC3 and DU145 xenograft mice treated with 40 mg/kg of cyc-LHSPW, cyc-NGR or saline control three times a week for four weeks. […] Statistical significance of cyc-LHSPW compared with control is denoted by: *P < 0.05; and **P < 0.01, as determined by the Student t test. […]
(§3) The clonogenic survival assays were conducted as previously described. […] Tumor measurements were made twice weekly with calipers and the tumor volume (in mm^3) was calculated by the formula 0.5236 × length (L) × width (W) × height (H). […]

[3] = test system: DU145 cells; assay: Clonogenic survival assay, DU145; assay type: cell-based
Description: as §1, §2, §3

[4] = test system: PC3 cells; assay: Flow cytometry binding to APN-expressing PC3 cells; assay type: cell-based; conditions: 500 nmol/L, 60 minutes, 4 °C
Description: (§4) Next, the specificity of the lead peptide inhibitor cyc-LHSPW was tested against a panel of cancer-associated proteases with wide-ranging substrate specificities (Fig. 5A). APN was the only protease inhibited by cyc-LHSPW with chymotrypsin, trypsin, PSA, KLK7, aminopeptidase A, and the exopeptidase FAP all having Ki values above 100 μM. Having assessed selectivity for purified APN, we next evaluated the ability of cyc-LHSPW to preferentially bind to cells that express surface APN using flow cytometry (Fig. 5B). […] The expression of cell surface-associated APN was examined in the androgen receptor negative neuroendocrine prostate cancer cell lines PC3 and DU145 using a commercially available antibody. […] The peptide was next tested on frozen PC3 and DU145 tumor xenografts sections.
(§5) Figure 5 Determining the specificity of cyc-LHSPW for APN. (A) The cyc-LHSPW peptide was specific inhibitor of APN when compared to a panel of proteases. (B) Fluorescence microscopy of frozen PC3 (left) and DU145 (right) xenograft sections with cyc-LHSPW-(Gly)4-FITC. Sections were incubated with 250 nM of cyc-LHSPW-(Gly)4-FITC overnight and then visualized. The merged fluoresence channels are cyc-LHSPW-(Gly)4-FITC (green) and nuclei (DAPI, blue). (C) Analysis of APN inhibitor binding to PC3 (left) and DU145 cells (right) by flow cytometry. […]

[5] = test system: DU145 cells; assay: Flow cytometry binding to APN-null DU145 cells; assay type: cell-based; conditions: 500 nmol/L, 60 minutes, 4 °C
Description: as §4, §5

[6] = test system: frozen PC3 and DU145 tumor xenografts sections; assay: Fluorescence microscopy of frozen tumor xenograft sections; conditions: 250 nM overnight, PC3 vs DU145 sections
Description: as §4, §5

Molecule	inhibition of APN (in words) [1]	clonogenic survival [2]	clonogenic survival [3]	binding to cells by flow cytometry [4]	binding to cells by flow cytometry ([4]; listed as FITC labeled cyc-LHSPW)	binding to cells by flow cytometry [5]	labeling of xenograft sections by fluorescence microscopy [6]
CCCC[C@@H]1NC(=O)[C@@H](N)CSSC[C@@H](C(=O)O)NC(=O)[C@H](Cc2c[nH]c3ccccc23)NC(=O)[C@@H]2CCCN2C(=O)[C@H](CO)NC(=O)[C@H](Cc2c[nH]cn2)NC1=O [cyc-nHSPW, Cys-nHSPW-Cys] (H-C[Nle]HSPWC-OH; disulfide 1-7; N-terminus and C-terminus assumed)	eliminated any measureable inhibition of APN	No significant biological effect	No significant biological effect				
cyc-LHSPW-(Gly)4-FITC: fluorophore-containing version of cyc-LHSPW with a (Gly)4-FITC group coupled to the C-terminal cysteine (CLHSPWCGGGG-{FITC′}; disulfide 1-7)				selectively labeled the APN-expressing PC3 cells over the APN-null DU145 cells	preferentially bound to PC3 cells	no noticeable labelling of DU145 cells	Preferential labeling of the PC3 xenograft section was evident
